Source: patent publication US10336762B2 (priority 2017, dated 2019)
Like-named read-outs stand apart in the source and are kept apart here.

What was measured:
[1] = tested on: TNFα; assay: cells; format: cell-based, human; conditions: Homo sapiens, Monocyte, LPS-stimulated human monocytes, read-out: EC50 TNF
[2] = biological target: IRAK4 enzyme (Homo sapiens (Human), UniProt Q9NWZ3); assay: biochemical; format: biochemical; conditions: IRAK4 enzyme, 500 μM ATP
Sequence of IRAK4 enzyme (Q9NWZ3 whole entry): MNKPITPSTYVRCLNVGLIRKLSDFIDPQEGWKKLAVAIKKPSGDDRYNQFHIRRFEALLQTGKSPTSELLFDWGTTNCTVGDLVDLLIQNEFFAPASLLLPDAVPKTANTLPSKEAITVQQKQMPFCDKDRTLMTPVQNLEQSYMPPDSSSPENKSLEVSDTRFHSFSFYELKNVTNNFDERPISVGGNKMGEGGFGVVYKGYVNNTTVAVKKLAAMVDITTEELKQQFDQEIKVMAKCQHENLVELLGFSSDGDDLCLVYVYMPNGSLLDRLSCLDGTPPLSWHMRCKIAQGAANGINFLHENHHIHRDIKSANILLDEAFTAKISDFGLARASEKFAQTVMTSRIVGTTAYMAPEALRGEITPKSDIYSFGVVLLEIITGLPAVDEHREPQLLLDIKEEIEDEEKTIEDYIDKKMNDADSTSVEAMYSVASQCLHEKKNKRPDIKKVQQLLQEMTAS

| SMILES | EC50 ([1]; TNFα content) | IC50 ([2]; TR-FRET) | IC50 ([2]; TR-FRET (HTRF)) | EC50 ([1]; TNFα by TR-FRET) |
| --- | --- | --- | --- | --- |
| CC(=O)NCc1cccc(Nc2cc(-c3ccc4cc(C#N)cnn34)ncc2C(=O)NC[C@@H](F)C(C)(C)O)c1 [Example 220, (R)-4-((3-(acetamidomethyl)phenyl)amino)-6-(3-cyanopyrrolo[1,2-b]pyridazin-7-yl)-N-(2-fluoro-3-hydroxy-3-methylbutyl)nicotinamide] | 123 nM | 1 nM | – | – |
| CC(C)Nc1cc(-c2ccc3cc(C#N)cnn23)ncc1C(=O)NCC1CS(=O)(=O)C1 [Example 72, 6-(3-cyanopyrrolo[1,2-b]pyridazin-7-yl)-N-((1,1-dioxidothietan-3-yl)methyl)-4-(isopropylamino) nicotinamide] | 159 nM | 4 nM | – | – |
| CC(C)(O)[C@H](F)CNC(=O)c1cnc(-c2ccc3cc(C#N)cnn23)cc1N[C@@H]1C[C@H]2CC[C@@H]1O2 [Example 94, 4-(((1S,2R,4R)-7-oxa-bicyclo[2.2.1]heptan-2-yl)amino)-6-(3-cyanopyrrolo[1,2-b]pyridazin-7-yl)-N-((R)-2-fluoro-3-hydroxy-3-methylbutyl)nicotinamide] | 92 nM | 1 nM | – | – |
| COC(=O)NC1CC2(C1)CC(Nc1cc(-c3ccc4cc(C#N)cnn34)ncc1C(=O)NC[C@@H](F)C(C)(C)O)C2 (stereo partly drawn) [Example 754, (R)-methyl (6-((2-(3-cyanopyrrolo[1,2-b]pyridazin-7-yl)-5-((2-fluoro-3-hydroxy-3-methylbutyl)carbamoyl)pyridin-4-yl)amino)spiro[3.3]heptan-2-yl)carbamate] | 20 nM | – | < 1 nM | – |
| CC(C)Oc1cccc(Nc2cc(-c3ccc4cc(C#N)cnn34)ncc2C(=O)NC[C@@H](F)C(C)(C)O)c1 [Example 837, (R)-6-(3-cyanopyrrolo[1,2-b]pyridazin-7-yl)-N-(2-fluoro-3-hydroxy-3-methylbutyl)-4-((3-isopropoxyphenyl)amino)nicotinamide] | – | 3 nM | – | 117 nM |
| N#CCNC(=O)c1cnc(-c2ccc3cc(C#N)cnn23)cc1NC1CC2(CC(O)C2)C1 (stereo not shown) [Example 453, N-(cyanomethyl)-6-(3-cyanopyrrolo[1,2-b]pyridazin-7-yl)-4-((6-hydroxyspiro[3.3]heptan-2-yl)amino) nicotinamide] | 68 nM | – | < 1 nM | – |
| CC(C)(O)[C@H](F)CNC(=O)c1cnc(-c2ccc3cc(C#N)cnn23)cc1Nc1cnn([C@H]2CCN(C3COC3)C2)c1 [Example 199, 6-(3-cyanopyrrolo[1,2-b]pyridazin-7-yl)-N-((R)-2-fluoro-3-hydroxy-3-methylbutyl)-4-((1-((S)-1-(oxetan-3-yl)pyrrolidin-3-yl)-1H-pyrazol-4-yl)amino)nicotinamide] | 82 nM | < 1 nM | – | – |
| CN1CCN(C(=O)[C@H](F)CNC(=O)c2cnc(-c3ccc4cc(C#N)cnn34)cc2NC23CCC(O)(CC2)CC3)CC1 [Example 948, (R)-6-(3-cyanopyrrolo[1,2-b]pyridazin-7-yl)-N-(2-fluoro-3-(4-methylpiperazin-1-yl)-3-oxopropyl)-4-((4-hydroxybicyclo[2.2.2]octan-1-yl)amino) nicotinamide] | – | 3 nM | – | 282 nM |
| CC(C)Nc1cc(-c2ccc3cc(C#N)cnn23)ncc1C(=O)N[C@H]1CCOC1 [Example 36, (S)-6-(3-cyanopyrrolo[1,2-b]pyridazin-7-yl)-4-(isopropylamino)-N-(tetrahydrofuran-3-yl) nicotinamide] | 221 nM | 15 nM | – | – |
| Cn1ccc(CNC(=O)c2cnc(-c3ccc4cc(C#N)cnn34)cc2NC23CCC(O)(CC2)CC3)n1 [Example 935, 6-(3-cyanopyrrolo[1,2-b]pyridazin-7-yl)-4-((4-hydroxybicyclo[2.2.2]octan-1-yl)amino)-N-((1-methyl-1H-pyrazol-3-yl)methyl)nicotinamide] | – | 2 nM | – | 153 nM |
| COC(=O)N1CCN(c2ccc(Nc3cc(-c4ccc5cc(C#N)cnn45)ncc3C(=O)NC[C@@H](F)C(C)(C)O)cn2)CC1 [Example 870, (R)-methyl 4-(5-((2-(3-cyanopyrrolo[1,2-b]pyridazin-7-yl)-5-((2-fluoro-3-hydroxy-3-methylbutyl)carbamoyl)pyridin-4-yl)amino)pyridin-2-yl)piperazine-1-carboxylate] | – | 1 nM | – | 81 nM |
| CC(C)(O)[C@H](F)CNC(=O)c1cnc(-c2ccc3cc(C#N)cnn23)cc1N[C@H]1C[C@H](CNC(=O)C2CC2)C1 [Example 534, 6-(3-cyanopyrrolo[1,2-b]pyridazin-7-yl)-4-(((1r,3R)-3-(cyclopropane-carboxamidomethyl)cyclo-butyl)amino)-N-((R)-2-fluoro-3-hydroxy-3-methyl-butyl)nicotinamide] | 26 nM | – | < 1 nM | – |
| CC(C)(O)[C@H](F)CNC(=O)c1cnc(-c2ccc3cc(C#N)cnn23)cc1NC1CC2(CNC(=O)O2)C1 (stereo partly drawn) [Example 763, (R)-6-(3-cyanopyrrolo[1,2-b]pyridazin-7-yl)-N-(2-fluoro-3-hydroxy-3-methylbutyl)-4-((6-oxo-5-oxa-7-azaspiro[3.4]octan-2-yl)amino)nicotinamide] | 155 nM | – | < 1 nM | – |
| CNC(=O)c1cnc(-c2ccc3cc(C#N)cnn23)cc1NC12CC(NC(C)=O)(C1)C2 [Example 498, 4-((3-acetamidobicyclo[1.1.1]pentan-1-yl)amino)-6-(3-cyanopyrrolo[1,2-b]pyridazin-7-yl)-N-methyl-nicotinamide] | 43 nM | – | 1 nM | – |
| CC(C)(O)[C@H](F)CNC(=O)c1cnc(-c2ccc3cc(C#N)cnn23)cc1NC[C@H]1CCN1CC(F)(F)F [Example 894, 6-(3-cyanopyrrolo[1,2-b]pyridazin-7-yl)-N-((R)-2-fluoro-3-hydroxy-3-methylbutyl)-4-((((R)-1-(2,2,2-trifluoroethyl)azetidin-2-yl)methyl)amino)nicotinamide] | – | 7 nM | – | 245 nM |
| CC(C)(O)[C@H](F)CNC(=O)c1cnc(-c2ccc3cc(C#N)cnn23)cc1Nc1cnc2c(c1)COCC2 [Example 862, (R)-6-(3-cyanopyrrolo[1,2-b]pyridazin-7-yl)-4-((7,8-dihydro-5H-pyrano[4,3-b]pyridin-3-yl)amino)-N-(2-fluoro-3-hydroxy-3-methylbutyl)nicotinamide] | – | < 1 nM | – | 46 nM |
| CC(C)(O)[C@H](F)CNC(=O)c1cnc(-c2ccc3cc(C#N)cnn23)cc1NC[C@H]1COCCN1 [Example 916, 6-(3-cyanopyrrolo[1,2-b]pyridazin-7-yl)-N-((R)-2-fluoro-3-hydroxy-3-methylbutyl)-4-((((S)-morpholin-3-yl)methyl)amino)nicotinamide] | – | 3 nM | – | 88 nM |
| CC1(O)CC2(CC(Nc3cc(-c4ccc5cc(C#N)cnn45)ncc3C(=O)NC[C@@H](F)C(C)(C)O)C2)C1 (stereo partly drawn) [Example 510, (R)-6-(3-cyanopyrrolo[1,2-b]pyridazin-7-yl)-N-(2-fluoro-3-hydroxy-3-methylbutyl)-4-((6-hydroxy-6-methylspiro[3.3]heptan-2-yl)amino)nicotinamide] | 39 nM | – | < 1 nM | – |
| CC(C)(C)C(=O)N[C@H]1CC[C@H](Nc2cc(-c3ccc4cc(C#N)cnn34)ncc2C(=O)NC[C@@H](F)C(C)(C)O)CC1 [Example 296, 6-(3-cyanopyrrolo[1,2-b]pyridazin-7-yl)-N-((R)-2-fluoro-3-hydroxy-3-methylbutyl)-4-(((1r,4R)-4-pivalamidocyclohexyl)amino)nicotinamide] | 391 nM | 3 nM | – | – |
| CN(C)C(=O)O[C@H]1C[C@H](Nc2cc(-c3ccc4cc(C#N)cnn34)ncc2C(=O)NC[C@@H](F)C(C)(C)O)C1 [Example 161, (1R,3r)-3-((2-(3-cyano-pyrrolo[1,2-b]pyridazin-7-yl)-5-(((R)-2-fluoro-3-hydroxy-3-methylbutyl)carbamoyl)pyridin-4-yl)amino)cyclobutyl dimethylcarbamate] | > 10000 nM | 1000 nM | – | – |
| CC(C)Nc1cc(-c2ccc3cc(C#N)cnn23)ncc1C(=O)N[C@H]1CCC[C@@H](O)C1 [Example 190, 6-(3-cyanopyrrolo[1,2-b]pyridazin-7-yl)-N-((1S,3R)-3-hydroxycyclohexyl)-4-(isopropylamino) nicotinamide] | 209 nM | 8 nM | – | – |
| CC(C)(O)[C@H](F)CNC(=O)c1cnc(-c2ccc3cc(C#N)cnn23)cc1N[C@H]1CN2CCC1CC2 [Example 266, 6-(3-cyanopyrrolo[1,2-b]pyridazin-7-yl)-N-((R)-2-fluoro-3-hydroxy-3-methylbutyl)-4-(((R)-quinuclidin-3-yl)amino)nicotinamide] | 7590 nM | 131 nM | – | – |
| CC(C)(O)[C@H](F)CNC(=O)c1cnc(-c2ccc3cc(C#N)cnn23)cc1NCCC(C)(N)C(F)(F)F (stereo partly drawn) [Example 562, 4-((3-amino-4,4,4-trifluoro-3-methylbutyl)amino)-6-(3-cyanopyrrolo[1,2-b]pyridazin-7-yl)-N-((R)-2-fluoro-3-hydroxy-3-methylbutyl)nicotinamide] | 75 nM | – | 1 nM | – |
| CC(C)(O)[C@H](F)CNC(=O)c1cnc(-c2ccc3cc(C#N)cnn23)cc1Nc1ccc(-n2ccnc2)nc1 [Example 768, (R)-4-((6-(1H-imidazol-1-yl)pyridin-3-yl)amino)-6-(3-cyanopyrrolo[1,2-b]pyridazin-7-yl)-N-(2-fluoro-3-hydroxy-3-methyl-butyl)nicotinamide] | 24 nM | – | < 1 nM | – |
| COC(=O)NCc1ccc(Nc2cc(-c3ccc4cc(C#N)cnn34)ncc2C(=O)NC[C@@H](F)C(C)(C)O)cc1 [Example 225, (R)-methyl (4-((2-(3-cyano-pyrrolo[1,2-b]pyridazin-7-yl)-5-((2-fluoro-3-hydroxy-3-methylbutyl)carbamoyl)pyridin-4-yl)amino)benzyl)carbamate] | 6 nM | < 1 nM | – | – |
| CC(C)(O)[C@H](F)CNC(=O)c1cnc(-c2ccc3cc(C#N)cnn23)cc1NC1C2CCC1CN(S(C)(=O)=O)C2 (stereo partly drawn) [Example 31, 6-(3-cyanopyrrolo[1,2-b]pyridazin-7-yl)-N-((R)-2-fluoro-3-hydroxy-3-methylbutyl)-4-((3-(methylsulfonyl)-3-azabicyclo[3.2.1]octan-8-yl)amino)nicotinamide] | 757 nM | 16 nM | – | – |
